From article PMC12884720, “Gabpα‐Pparγ Complex Determines Glycolytic Capacity and Lactic Acid Homeostasis in Brown Fat” (Advanced Science, 2025)
Residues, ends and D or L forms follow the SMILES beside them. *: point of attachment. FITC = O=C1OC2(c3ccc(O)cc3Oc3cc(O)ccc32)c2ccc(NC(=S)*)cc21

System: wild‐type mice
Assay: Oxygen consumption and heat production (CLAMS)
Format: in vivo, wild‐type C57BL/6J mice
Conditions: GPCBi‐injected mice, room temperature, n = 4 (Figure 4n,o; Figure S4i,j)
Description: The mouse experiments were approved by the Institutional Animal Care and Use Committee of the Institute of Model Animals of Tongji Hospital, Huazhong University of Science and Technology, and were performed in compliance with all relevant ethical regulations (approval number: TJH‐202110044). Unless otherwise noted, the mice were housed in a pathogen‐free and climate‐controlled environment (22–25 °C, 40‐60% humidity) and were given free access to food and water on a 12 h light/dark cycle. Wild‐type C57BL/6J mice were obtained from Beijing Huafukang Bioscience Co., Ltd. (Beijing, China). Gabpa ^flox/flox , Adipoq^Cre , and Ucp1^Cre mice were purchased from Cyagen Biosciences, Inc. (Guangzhou, China). For GPCBi treatment, wild‐type mice were orthotopically injected GPCBi (FITC‐[…]; 5.5 mg kg^−1) or scramble peptide (FITC‐[…]; 5.5 mg kg^−1) into the BAT at room temperature for one week. […] Body weight was measured every week, and tissue weights were measured at the time of euthanasia.
Three‐month‐old mice (Gabpα ^Ucp1 KO, Gabpα ^Adipo KI, peptide GPCBi, and respective littermate control mice) were subjected to whole‐body energy expenditure measurements in metabolic chambers. Oxygen consumption and heat production were monitored via a Comprehensive Laboratory Animal Monitoring System (CLAMS, Columbus Instruments) at specific temperatures. […]

## CC[C@H](C)[C@H](NC(=O)[C@H](CCCNC(=N)N)NC(=O)[C@H](CS)NC(=O)[C@H](CC(N)=O)NC(=O)[C@H](CC(C)C)NC(=O)[C@H](CC(=O)O)NC(=O)[C@H](CS)NC(=O)[C@H](CCCNC(=N)N)NC(=O)[C@H](CC(=O)O)NC(=O)[C@H](Cc1ccc(O)cc1)NC(=O)[C@@H](NC(=O)[C@H](CC(C)C)NC(=O)[C@H](CCCCN)NC(=O)[C@H](CC(C)C)NC(=O)[C@H](CCCNC(=N)N)NC(=O)[C@@H](NC(=O)[C@@H](NC(=O)[C@H](CCCNC(=N)N)NC(=O)[C@H](CCCNC(=N)N)NC(=O)[C@H](CCCNC(=N)N)NC(=O)[C@H](CCCNC(=N)N)NC(=O)[C@H](CCCNC(=N)N)NC(=O)[C@H](CCC(N)=O)NC(=O)[C@H](CCCNC(=N)N)NC(=O)[C@H](CCCNC(=N)N)NC(=O)[C@H](CCCCN)NC(=O)[C@H](CCCCN)NC(=O)[C@H](CCCNC(=N)N)NC(=O)CNC(=O)[C@H](Cc1ccc(O)cc1)NC(=S)Nc1ccc2c(c1)C(=O)OC21c2ccc(O)cc2Oc2cc(O)ccc21)[C@@H](C)O)[C@@H](C)CC)[C@@H](C)CC)C(=O)N[C@@H](Cc1c[nH]cn1)C(=O)N[C@@H](CCCCN)C(=O)N[C@@H](CCCCN)C(=O)N[C@@H](CO)C(=O)N[C@@H](CCCNC(=N)N)C(=O)N[C@@H](CC(N)=O)C(=O)N[C@@H](CCCCN)C(=O)O [GPCBi] ({FITC}-YGRKKRRQRRRRRTIRLKLIYDRCDLNCRIHKKSRNK-OH; N-terminus and C-terminus assumed)
  oxygen consumption and heat production: significant decreases
